PMC6458850, “CXXC5 mediates growth plate senescence and is a target for enhancement of longitudinal bone growth” (Life Science Alliance, 2019)

Assays:
[1] = tested on: tibial growth plate; test: Estrogen-induced growth plate senescence in Cxxc5+/+ and Cxxc5−/− mice; type: in vivo, mouse; conditions: E2 cypionate 70 μg/kg i.m. once a week for 3 wk
Experimental: Figure 2. The effects of estrogen on CXXC5 expression and the mediation of growth plate senescence. (A) Immunoblotting (upper) and quantitative analyses (mean ± SEM, n = 3) (lower) in C28/I2 cells treated with 100 nM E2 (17β-estradiol) for 0, 1, 3, 6, 24, 48, or 72 h. (B) Immunocytochemical staining (left) and quantitative analyses of the fluorescent intensity (mean ± SEM, n = 3; t test, **P < 0.005 and ***P < 0.0005) (right) in C28/I2 cells treated with 100 nM E2 for 40 h. Scale bars, 100 μm. (C–E) Tibial organ cultures (E15.5) incubated with 100 nM E2 for 6 d. Representative images at 6 d (C, left) and quantitative analyses of the growth changes (mean ± SEM, n = 5; t test, ***P < 0.0005) (C, right). Scale bar, 1 mm. H&E staining (D, left) and quantification of each zone height (mean ± SEM, n = 5; t test, *P < 0.05 and **P < 0.005) (D, right) in the growth plate. Scale bar, 200 μm. IHC analyses of β-catenin and CXXC5 (E). Scale bars, 50 μm. (F) 3-wk-old Cxxc5^+/+ and Cxxc5^−/− mice were treated with E2 cypionate (70 μg/kg) by i.m. injection once a week for 3 wk (n = 3–4). Representative images of H&E staining and IHC analyses for BrdU, β-catenin, and CXXC5 in the growth plates of proximal tibiae are shown. The area within the dashed lines indicates the growth plate zone. Black and white scale bars, 50 μm. Yellow scale bar, 20 μm. RZ, resting zone; PZ, proliferative zone; HZ, hypertrophic zone. […]

[2] = In vivo pharmacokinetics of KY19382; conditions: SD male rat; for AUC(0-t): 0 to 24 hour
Experimental: Animal studies were approved by the Institutional Animal Care and use committee at KRIBB. Briefly, specific pathogen-free male Sprague−Dawley (SD) rats (10 weeks old, body weight 298−315 g), purchased from Koatech Co. […] Dosing solutions were prepared in dimethylacetamide (DMAC)/polyethylene glycol 400 (PEG400) (20/80, v/v %) for administrations, and administered at dosing volumes of 5 and 10 ml/kg for iv and ip, respectively. A 100 μl aliquot of each plasma sample was prepared, and three volumes of ice-cold acetonitrile containing carbamazepine (internal standard) were added. The mixture was centrifuged at 910 g for 10 minutes, and the supernatant was subjected to LC−MS/MS analysis. Pharmacokinetic parameters were calculated by standard noncompartmental analysis of plasma concentration−time profiles using Kinetica 4.4.1 (Thermo Fisher Scientific, Inc., Woburn, MA, USA). The areas under the plasma concentration−time curves (AUC) were calculated by the linear−trapezoidal method. Systemic plasma clearance (CLP) was calculated as follows: CLP = dose/AUCinf. Terminal elimination half-life (t1/2) was calculated by the following equation: t1/2 = 0.693/λZ where λZ is the terminal disposition rate constant. Volume of distribution at steady state (VSS) was calculated as follows: VSS = dose × AUMCinf/(AUCinf)^2, where AUMCinf is the area under the first moment of the plasma concentration−time curve extrapolated to infinity. Bioavailability (F) was calculated as follows: F (%) = (AUCip/AUCiv)(doseiv/doseip) × 100.
Pharmacokinetic parameters were based on the mean plasma concentration-time profiles of SD male rat (n=3). Pharmacokinetic parameters were obtained by non-compartmental analysis of the plasma concentration-time profiles using KineticaTM 4.4.1 (Thermo Fisher Scientific, Inc., Woburn, MA, USA). AUClast was calculated from 0 to 24 hour. IV, intravenous; IP, intraperitoneal; Tmax, Time to maximum plasm concentration; Cmax, Maximum plasma concentration after intraperitoneal injection; AUC, Area under the curve; CL, clearance; Vss, Volume of distribution at steady state; T1/2, Elimination half-life; F, bioavailability.

[3] = Toxicity observations in mice treated with KY19382 for 10 wk; type: in vivo, mouse; conditions: 0.1 mg/kg i.p. daily for 10 wk
Experimental: Figure S9. The effects of KY19382 on articular cartilage and liver tissues, or weight. Data are shown from mice used in Fig 5J. (A, B) H&E staining of articular cartilage (A) and liver (B) tissues. (C) During treatment, the weights of mice were measured every 5–7 d (mean ± SEM, n = 7∼15). Scale bars, 100 μm.
Cxxc5^−/− mice were established in a previous study ([Kim et al, 2015]). To manipulate growth plate senescence by estrogen, 3-wk-old Cxxc5^+/+ and Cxxc5^−/− male mice received weekly i.m. injections of either 70 μg/kg estradiol (E2) cypionate (Sigma-Aldrich) or vehicle (cottonseed oil) for 3 wk. To investigate the effects of KY19382 treatment on longitudinal bone growth, C57BL/6 male mice were purchased from KOATECH (Gyeonggido, Korea). KY19382 (0.1 mg/kg) was administered daily by i.p. injection to 3- and 7-wk-old mice for 2 wk or to 3-wk-old mice for 10 wk. For BrdU labeling experiments, the mice were i.p. injected with 50 mg/kg BrdU (Sigma-Aldrich) before 24 h to euthanize. All animal procedures were approved by the Institutional Animal Care and Use Committee of Yonsei University (Korea) and conducted based on the guidelines of the Korean Food and Drug Administration.

[4] = Sprague-Dawley, plasma, IP, 5 mg/kg, mean
[5] = Sprague-Dawley, plasma, IV, 1 mg/kg, mean

CL ([2]; IP, 5 mg/kg, mean) | bioavailability ([2]; Sprague-Dawley, plasma, intraperitoneal, IP 5 mg/kg vs IV 1 mg/kg, read-out: F (intraperitoneal bioavailability)) | Cmax [2, 4] | Tmax [2, 4] | half-life [2, 4] | AUC(0-t) [2, 4] | clearance [2, 5] | half-life [2, 5] | AUC(0-t) [2, 5] | Vd ([2]; Sprague-Dawley, plasma, IV, 1 mg/kg, mean, read-out: Vss) | SMILES | structural senescence of the tibial growth plate [1] | body weight during treatment [3] | histology of articular cartilage and liver tissues [3]
– | – | – | – | – | – | – | – | – | – | C[C@]12CC[C@@H]3c4ccc(O)cc4CC[C@H]3[C@@H]1CC[C@@H]2O [E2, 17β-estradiol] | hardly observed | – | –
7.83 mL/min/kg | 16.7% | 463 ng/mL | 1 h | 16.2 h | 6560 ng·h/mL | 2 mL/min/kg | 3.33 h | 7830 ng·h/mL | 0.33 L/kg | CON=C1C(=C2C(=O)Nc3cc(Cl)c(Cl)cc32)Nc2ccccc21 [KY19382, 5,6-dichloroindirubin-3′-methoxime] | – | no difference in weight | no histological abnormalities were detected
